Activity calls are given as the source filed them.
What was measured:
[1] = Luminescence Cell-Based Dose Response HTS to Identify Activators of Luciferase Translation or Activity in H4 […] Cells. [Related pubchem assays: 1829 (Project Summary), 1814 (Primary HTS)]; type: functional
H4 = assay: Luminescence Cell-Based Dose Response HTS to Identify Activators of 5'UTR Stem-Loop Driven Prion Protein mRNA Translation in H4 Neuroglioblastoma Cells. [Related pubchem assays: 1829 (Project Summary), 1814 (Primary HTS)]; type: functional; details: Homo sapiens
[2] = Luminescence Cell-Based Dose Confirmation HTS to Identify Activators of 5'UTR Stem-Loop Driven Alpha-Synuclein mRNA Translation in H4 Neuroglioblastoma Cells. [Related pubchem assays: 1829 (Project Summary), 1814 (Primary HTS)]; type: functional
[3] = microbe, parasite or virus in culture; type: functional; details: Mycobacterium tuberculosis
Protein skinhead-1 = molecular target: T1, Protein skinhead-1 (Caenorhabditis elegans, UniProt P34707); type: functional
T1 sequence (P34707 whole entry): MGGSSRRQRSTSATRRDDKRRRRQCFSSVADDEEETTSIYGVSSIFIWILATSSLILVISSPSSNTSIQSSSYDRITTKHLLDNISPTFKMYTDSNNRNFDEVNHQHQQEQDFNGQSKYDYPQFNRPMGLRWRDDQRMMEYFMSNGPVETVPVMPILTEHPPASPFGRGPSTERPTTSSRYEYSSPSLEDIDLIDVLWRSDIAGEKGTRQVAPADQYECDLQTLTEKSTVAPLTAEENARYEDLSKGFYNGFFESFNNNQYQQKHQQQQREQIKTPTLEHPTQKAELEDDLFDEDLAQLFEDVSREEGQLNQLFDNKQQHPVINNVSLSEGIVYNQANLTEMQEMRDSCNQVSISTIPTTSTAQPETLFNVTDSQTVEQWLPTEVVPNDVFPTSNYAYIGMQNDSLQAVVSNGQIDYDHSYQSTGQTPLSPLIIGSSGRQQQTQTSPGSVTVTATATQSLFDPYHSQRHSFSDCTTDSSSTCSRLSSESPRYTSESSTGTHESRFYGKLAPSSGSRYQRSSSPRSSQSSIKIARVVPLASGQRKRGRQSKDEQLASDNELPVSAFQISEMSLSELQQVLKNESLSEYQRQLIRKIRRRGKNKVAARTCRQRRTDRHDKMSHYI

[4] = Luminescence Cell-Based Dose Retest to Confirm Inhibitors of Cancer Stem Cells. [Related pubchem assays (depositor defined):AID2717, AID2721]; type: functional; details: Homo sapiens
Large T antigen = Large T antigen (Simian virus 40, UniProt P03070); type: functional, Betapolyomavirus macacae;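 note: Confirmatory-stage PubChem screen for compounds that inhibit SV40 T antigen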
Genome polyprotein = Genome polyprotein (dengue virus type 2, UniProt P29990); assay: Dengue-2 NS5 methyltransferase inhibitors, primary screen, biochemical, confirmation dose response (AID 588689); type: functional
[5] = molecular target: T2, Heat shock factor protein 1 (Mus musculus, UniProt P38532); assay: HSF1 potentiators in luciferase reporter cells, confirmation, cell-based, NIH3T3, luminescence, dose retest (AID 435004); type: functional;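 note: stress induced by proteasome inhibitor MG132 added 30 min after compound; luciferase reporter driven by HSF1 response element in NIH3T3 cells; actives raise luminescence as potentiators of the MG132 stress response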
T2 sequence (P38532 whole entry): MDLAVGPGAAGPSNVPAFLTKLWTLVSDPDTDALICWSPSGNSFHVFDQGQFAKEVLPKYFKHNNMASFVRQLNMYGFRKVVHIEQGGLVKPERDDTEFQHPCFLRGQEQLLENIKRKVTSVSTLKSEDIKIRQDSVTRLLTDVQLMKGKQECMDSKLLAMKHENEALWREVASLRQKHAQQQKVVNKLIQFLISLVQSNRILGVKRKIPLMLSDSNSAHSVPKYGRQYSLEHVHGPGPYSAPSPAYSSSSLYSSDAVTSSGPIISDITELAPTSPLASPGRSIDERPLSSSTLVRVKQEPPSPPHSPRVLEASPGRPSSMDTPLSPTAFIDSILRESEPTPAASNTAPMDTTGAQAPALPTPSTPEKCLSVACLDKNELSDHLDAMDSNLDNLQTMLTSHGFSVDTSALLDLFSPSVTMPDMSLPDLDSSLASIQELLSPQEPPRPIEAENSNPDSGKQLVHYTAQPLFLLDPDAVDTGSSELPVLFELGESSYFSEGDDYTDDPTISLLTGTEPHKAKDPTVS

[6] = cytotoxicity toward NIH3T3 fibroblasts, dose response, counter-screen, cell-based, ATP luminescence, mouse fibroblasts (AID 2010); type: functional;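 note: cells exposed to compound for about 90 hours before reading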
Protein RecA = molecular target: T3, Protein RecA (Mycobacterium tuberculosis, UniProt P9WHJ3); assay: Fluorescence Cell-Free Homogeneous Dose Retest to Identify Inhibitors of RecA-Intein Splicing Activity. [Related pubchem assays (depositor defined):AID2097, AID2223, AID489010, AID492950]; type: functional
T3 sequence (P9WHJ3 whole entry): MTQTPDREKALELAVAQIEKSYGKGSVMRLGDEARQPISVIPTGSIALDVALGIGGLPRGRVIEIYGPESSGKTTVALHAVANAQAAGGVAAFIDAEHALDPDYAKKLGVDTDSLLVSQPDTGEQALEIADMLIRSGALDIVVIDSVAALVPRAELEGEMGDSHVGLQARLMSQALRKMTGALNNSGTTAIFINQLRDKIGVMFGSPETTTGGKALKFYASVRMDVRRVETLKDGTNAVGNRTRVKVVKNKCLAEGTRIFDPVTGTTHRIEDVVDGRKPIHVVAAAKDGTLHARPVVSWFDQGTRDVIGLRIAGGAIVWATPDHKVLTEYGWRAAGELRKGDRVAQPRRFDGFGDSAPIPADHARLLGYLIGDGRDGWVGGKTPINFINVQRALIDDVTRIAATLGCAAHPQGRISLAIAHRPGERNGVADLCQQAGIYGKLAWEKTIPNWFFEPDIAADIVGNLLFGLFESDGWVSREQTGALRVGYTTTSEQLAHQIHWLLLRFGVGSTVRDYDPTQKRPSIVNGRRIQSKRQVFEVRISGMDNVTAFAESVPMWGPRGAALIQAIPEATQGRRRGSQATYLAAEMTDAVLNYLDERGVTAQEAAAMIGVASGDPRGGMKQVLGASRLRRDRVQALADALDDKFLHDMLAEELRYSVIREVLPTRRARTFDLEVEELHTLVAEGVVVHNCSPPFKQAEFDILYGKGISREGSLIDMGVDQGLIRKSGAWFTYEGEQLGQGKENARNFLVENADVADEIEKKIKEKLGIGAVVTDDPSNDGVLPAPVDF

[7] = molecular target: T4, Replicative DNA helicase DnaB (Mycobacterium tuberculosis, UniProt P9WMR3); assay: DnaB intein splicing inhibitors, dose response, biochemical, cell-free fluorescence (AID 449749); type: functional
T4 sequence (P9WMR3 whole entry): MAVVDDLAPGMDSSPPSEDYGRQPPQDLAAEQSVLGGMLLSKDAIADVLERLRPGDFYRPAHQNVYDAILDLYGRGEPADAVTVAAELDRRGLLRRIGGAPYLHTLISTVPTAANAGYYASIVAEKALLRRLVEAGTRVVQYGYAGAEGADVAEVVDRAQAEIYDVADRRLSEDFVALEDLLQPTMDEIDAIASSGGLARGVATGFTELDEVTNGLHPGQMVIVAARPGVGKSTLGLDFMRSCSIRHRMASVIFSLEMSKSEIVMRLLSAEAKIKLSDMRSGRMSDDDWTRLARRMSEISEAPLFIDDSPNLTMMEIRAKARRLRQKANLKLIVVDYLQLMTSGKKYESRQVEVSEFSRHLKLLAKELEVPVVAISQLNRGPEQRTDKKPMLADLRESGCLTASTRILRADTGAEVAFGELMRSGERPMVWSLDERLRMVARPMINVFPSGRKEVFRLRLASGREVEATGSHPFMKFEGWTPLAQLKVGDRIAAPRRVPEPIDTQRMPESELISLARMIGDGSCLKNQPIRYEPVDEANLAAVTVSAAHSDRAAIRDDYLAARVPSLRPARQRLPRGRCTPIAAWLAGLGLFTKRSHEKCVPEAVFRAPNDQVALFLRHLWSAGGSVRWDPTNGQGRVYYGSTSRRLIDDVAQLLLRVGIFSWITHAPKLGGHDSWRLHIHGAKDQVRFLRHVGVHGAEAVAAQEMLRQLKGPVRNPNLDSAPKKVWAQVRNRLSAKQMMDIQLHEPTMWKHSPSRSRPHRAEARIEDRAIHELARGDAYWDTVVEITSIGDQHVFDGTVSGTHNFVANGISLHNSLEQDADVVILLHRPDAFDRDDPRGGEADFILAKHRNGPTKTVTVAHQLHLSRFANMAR

[8] = inhibitors of intracellular T. cruzi replication, confirmation, NIH3T3 host cells, beta-gal luminescence (AID 2044); type: functional, cell-based;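 note: intracellular parasites grown in NIH/3T3 mouse fibroblasts as host cells; luminescent beta-galactosidase reporter signal from transgenic T. cruzi replicating inside host cells; inhibitors lower the luminescence signal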
[9] = molecular target: Induced myeloid leukemia cell differentiation protein Mcl-1 (Homo sapiens, UniProt Q07820); type: functional
Streptococcus = assay: Group A Streptococcus viability loss, dose response, counter-screen for streptokinase expression inhibitor project, luminescence, BacTiterGlo (AID 1915); type: functional, organism-based;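 note: potency for reduction of bacterial viability or growth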
[10] = system: Streptococcus sp. 'group A'; assay: growth inhibition of control SK(-) GAS strain, dose response, counter-screen for streptokinase expression inhibitor project, luminescence, kanamycin, BacTiterGlo, confirmation (AID 1900); type: functional, organism-based
Streptokinase A = molecular target: T5, Streptokinase A (Streptococcus pyogenes serotype M1, UniProt P10520); assay: S. pyogenes streptokinase expression inhibitors, potency, dose response, plasminogen activation absorbance, OD405 (AID 1914); type: functional, Streptococcus pyogenes M1 GAS;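 note: secreted streptokinase activity via plasminogen activation per viability signal from cell pellet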
T5 sequence (P10520 whole entry): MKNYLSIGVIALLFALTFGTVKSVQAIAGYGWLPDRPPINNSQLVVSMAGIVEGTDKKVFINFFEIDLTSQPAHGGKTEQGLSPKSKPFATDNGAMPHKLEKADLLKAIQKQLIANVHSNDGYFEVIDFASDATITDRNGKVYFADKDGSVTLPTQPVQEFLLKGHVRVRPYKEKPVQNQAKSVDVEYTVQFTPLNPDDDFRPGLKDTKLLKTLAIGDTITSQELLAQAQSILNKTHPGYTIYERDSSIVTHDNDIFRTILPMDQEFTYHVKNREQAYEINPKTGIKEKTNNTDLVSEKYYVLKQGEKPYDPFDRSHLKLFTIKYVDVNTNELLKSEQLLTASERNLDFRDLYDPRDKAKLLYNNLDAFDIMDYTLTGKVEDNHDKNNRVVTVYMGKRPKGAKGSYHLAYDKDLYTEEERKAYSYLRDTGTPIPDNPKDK

Chain of Large T antigen (P03070 whole entry): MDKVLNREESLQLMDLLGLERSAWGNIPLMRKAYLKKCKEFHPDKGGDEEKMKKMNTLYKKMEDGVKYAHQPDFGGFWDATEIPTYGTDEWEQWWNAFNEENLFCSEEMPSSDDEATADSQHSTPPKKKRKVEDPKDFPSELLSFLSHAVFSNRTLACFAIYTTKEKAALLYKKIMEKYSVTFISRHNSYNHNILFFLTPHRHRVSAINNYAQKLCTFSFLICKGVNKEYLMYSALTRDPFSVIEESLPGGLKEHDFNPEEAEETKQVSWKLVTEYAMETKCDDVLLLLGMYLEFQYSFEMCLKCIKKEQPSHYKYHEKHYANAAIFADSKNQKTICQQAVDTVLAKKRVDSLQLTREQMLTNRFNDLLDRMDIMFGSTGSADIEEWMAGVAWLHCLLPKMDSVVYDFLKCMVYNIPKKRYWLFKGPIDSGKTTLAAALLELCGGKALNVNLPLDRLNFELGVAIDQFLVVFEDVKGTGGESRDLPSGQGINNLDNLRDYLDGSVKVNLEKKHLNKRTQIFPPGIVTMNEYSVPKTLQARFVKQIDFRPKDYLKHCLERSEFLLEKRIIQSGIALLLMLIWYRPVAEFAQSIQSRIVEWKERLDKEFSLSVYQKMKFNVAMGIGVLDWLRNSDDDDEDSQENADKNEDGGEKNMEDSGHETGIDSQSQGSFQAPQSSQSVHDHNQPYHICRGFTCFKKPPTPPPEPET
Chain of Genome polyprotein (P29990 2492-3391 limits assumed): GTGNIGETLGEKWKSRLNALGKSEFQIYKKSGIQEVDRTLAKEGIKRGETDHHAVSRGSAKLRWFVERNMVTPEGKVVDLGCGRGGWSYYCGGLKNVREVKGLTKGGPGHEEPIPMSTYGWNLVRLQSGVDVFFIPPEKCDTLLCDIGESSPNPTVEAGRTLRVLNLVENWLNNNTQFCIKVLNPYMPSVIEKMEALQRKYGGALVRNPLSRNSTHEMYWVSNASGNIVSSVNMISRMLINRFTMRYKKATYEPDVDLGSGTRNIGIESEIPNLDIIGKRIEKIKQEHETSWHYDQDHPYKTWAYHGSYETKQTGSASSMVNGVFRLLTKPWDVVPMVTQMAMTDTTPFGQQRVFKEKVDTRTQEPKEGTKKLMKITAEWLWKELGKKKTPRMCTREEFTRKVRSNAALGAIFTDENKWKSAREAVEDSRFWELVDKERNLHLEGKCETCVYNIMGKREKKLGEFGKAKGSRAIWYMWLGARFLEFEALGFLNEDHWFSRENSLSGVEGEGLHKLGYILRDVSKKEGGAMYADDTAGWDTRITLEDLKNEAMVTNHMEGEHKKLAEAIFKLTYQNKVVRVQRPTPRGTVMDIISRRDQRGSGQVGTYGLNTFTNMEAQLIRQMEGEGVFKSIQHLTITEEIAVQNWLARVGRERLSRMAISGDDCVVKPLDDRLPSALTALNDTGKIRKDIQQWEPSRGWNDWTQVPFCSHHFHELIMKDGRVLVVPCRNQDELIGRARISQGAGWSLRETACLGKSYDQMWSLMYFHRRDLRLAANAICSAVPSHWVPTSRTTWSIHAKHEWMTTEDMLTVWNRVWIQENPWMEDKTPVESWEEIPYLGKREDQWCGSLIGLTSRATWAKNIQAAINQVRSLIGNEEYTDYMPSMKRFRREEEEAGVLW
Chain of Induced myeloid leukemia cell differentiation protein Mcl-1 (Q07820 whole entry): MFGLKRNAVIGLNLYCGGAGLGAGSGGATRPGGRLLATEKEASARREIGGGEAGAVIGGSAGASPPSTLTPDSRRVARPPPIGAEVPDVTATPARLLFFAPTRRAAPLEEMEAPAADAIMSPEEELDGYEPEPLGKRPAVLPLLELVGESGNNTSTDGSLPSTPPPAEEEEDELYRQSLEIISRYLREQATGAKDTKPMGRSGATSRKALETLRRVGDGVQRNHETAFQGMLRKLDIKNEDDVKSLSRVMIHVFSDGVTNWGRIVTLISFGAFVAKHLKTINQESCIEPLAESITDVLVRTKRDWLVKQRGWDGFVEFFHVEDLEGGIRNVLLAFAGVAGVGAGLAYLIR

## Nc1nc2c(C(=O)N3CCOCC3)nnn2c2ccccc12
[1]
  EC50: 0.203 µM (active)
H4
  EC50: 26.9 µM (active)
[2]
  EC50: 0.138 µM (active)

## CC(C)(C)c1ccc(-c2nc3nc(O)cc(NC(=O)c4ccco4)n3n2)cc1
[3]
  CC50: > 40 µM (active)

## COc1cc(CCC(=O)OCC(=O)Nc2ccc(F)cc2F)cc(OC)c1OC
Protein skinhead-1
  IC50: > 100 µM (inactive)

## O=C(CCOc1ccccc1)N1CCN(c2ccc(O)cc2)CC1
[4]
  AC50: 11.3 µM (active)
Large T antigen
  IC50: 4.19 µM (active)

## Cc1cc(N2CCOCC2)nc2cc(O)ccc12
[1]
  EC50: 6.94 µM (active)
H4
  EC50: > 120 µM (not active)
[2]
  EC50: 16.2 µM (active)

## Cc1ccc2nc3c(cc(C(=O)NCc4ccco4)c(=N)n3Cc3ccco3)c(=O)n2c1
[3]
  CC50: 23.8 µM (active)

## CCOc1cc(/C=C/c2cc(C(F)(F)F)nc(O)n2)ccc1O
Large T antigen
  IC50: 13 µM (active)

## O=c1c(-c2cnn(-c3ccccc3)c2)coc2cc(O)ccc12
[3]
  CC50: > 40 µM (active)

## COc1ccc(CN2CCN(Cc3ccco3)CC2)cc1
Protein skinhead-1
  IC50: > 100 µM (inactive)

## CCOc1ccc(OCCC(=O)OCC(=O)N2CCN(S(=O)(=O)c3ccc(C)cc3)CC2)cc1
Large T antigen
  IC50: 11.1 µM (active)

## Fc1ccc(-c2nc(-c3cccs3)no2)cc1
Protein skinhead-1
  IC50: > 100 µM (inactive)

## Cc1cc(-n2c(C)cc(C(=O)COc3ccccc3[N+](=O)[O-])c2C)no1
[1]
  EC50: 44.9 µM (active)
H4
  EC50: > 120 µM (not active)
[2]
  EC50: 13.5 µM (active)

## O=C(O)/C=C/C(=O)c1ccc2c(c1)NC(=O)CO2
Genome polyprotein
  IC50: > 100 µM (active)

## O=C(c1ccccc1)c1ccc(OCCOCCN2CCN(Cc3ccccc3)CC2)cc1
[3]
  CC50: > 40 µM (active)

## COc1ccc(O)c(C(=O)c2cnn(-c3ccccn3)c2)c1
[1]
  EC50: 43.5 µM (active)
H4
  EC50: 9.17 µM (active)
[2]
  EC50: 15.4 µM (active)

## Cc1ccccc1-c1nc(C[S+]([O-])CC(=O)NCc2ccc3c(c2)OCO3)c(C)o1 (stereo not drawn)
Protein skinhead-1
  IC50: > 100 µM (inactive)

## C=C[S+]([O-])c1sc(Cl)c(N2CCOCC2)c1[N+](=O)[O-] (stereo not drawn)
[5]
  EC50: 3.36 µM (inconclusive)
[6]
  EC50: 3.08 µM (active)
Protein RecA
  EC50: 18.8 µM (active)
[7]
  AC50: 22.2 µM (active)
Large T antigen
  IC50: 9.77 µM (active)
[8]
  EC50: 2.99 µM (active)

## c1csc(-c2cn3ccc4ccccc4c3n2)c1
[1]
  EC50: 26 µM (active)
Protein skinhead-1
  IC50: 33.6 µM (active)
H4
  EC50: 0.106 µM (active)

## CCN1CCN(c2ncnc3c2c(-c2ccccc2)cn3-c2ccc(F)cc2)CC1
Protein skinhead-1
  IC50: 12.6 µM (active)

## Cc1cc(C)n2nc(/C(C#N)=C/c3ccccn3)c(C#N)c2n1
[3]
  CC50: > 40 µM (active)

## OC(CN1CCN(c2ccccn2)CC1)Cn1c2ccccc2c2ccccc21 (stereo not drawn)
[3]
  CC50: > 40 µM (active)

## CCN(CC)c1ccc(NC(=O)CCNC(=O)c2ccco2)cc1
[9]
  IC50: 9.57 µM (not active)
Large T antigen
  IC50: 6.69 µM (active)

## O=C(CN1C(=O)NC2(CCCC2)C1=O)Nc1cc(S(=O)(=O)N2CCOCC2)ccc1OCC(F)(F)F
Protein skinhead-1
  IC50: > 100 µM (inactive)

## Cc1cnc(C(=O)N(CCCn2ccnc2)C2C(=O)Nc3ccccc3N=C2c2ccccc2)cn1 (stereo not drawn)
Protein skinhead-1
  IC50: > 100 µM (inactive)

## COc1cc(/C=N/N=C2/C(=O)Nc3ccccc32)ccc1O
Large T antigen
  IC50: 8.73 µM (active)

## Cc1nn(-c2ccccc2)c(Cl)c1/C=C1\SC(=S)N(CCCCCC(=O)O)C1=O
Streptococcus
  EC50: 11.2 µM (active)
Protein RecA
  EC50: 14.2 µM (active)
[10]
  EC50: 5.26 µM (active)
[7]
  AC50: 4.93 µM (active)
Streptokinase A
  EC50: 40.7 µM (inconclusive)
Genome polyprotein
  IC50: 41.4 µM (active)

Source: ChEMBL document CHEMBL1201862, “PubChem BioAssay data set” (2004)
